Some test systems named below: COLO 205; HCT-116; HCT-15; KM12; LOX IMVI; MOLT-4; NCI-H460; OVCAR-4; OVCAR-5; SF-268; SF-295; SK-MEL-28; SK-MEL-5; SNB-19; SW-620; U-251; UACC-257; EKVX; IGROV-1; UACC-62.
Holding throughout (experiment): inhibition of tumour cell growth, NCI panel, 48 h

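Results reflect a 48-hour exposure of cells in 96-well plates to compound at five concentrations. Abbreviation: GI50, concentration required for 50% inhibition of growth.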 The source made the active and inactive calls. Rule as the data show it: active = GI50 up to about 1.1 µM and inactive = higher.

As for `O=C1c2cccc(O)c2C(=O)c2c(O)cc(CO)cc21` [ALOE-EMODIN], the GI50 in the assay with COLO 205 is 31.7 µM (inactive); in the assay with HCT-116 it was 30.1 µM (inactive); with HCT-15, 28.1 µM; in the assay with KM12 it was 40.2 µM (inactive); in the assay on LOX IMVI, 26.2 µM (inactive); with MOLT-4, 40.8 µM (inactive). Besides, the GI50 is 29.4 µM (inactive) in the assay with NCI-H460; 77.8 µM (inactive) in the assay on OVCAR-4; > 100 µM (inactive) in the assay on OVCAR-5; 52.4 µM (inactive) in the assay with SF-268; 96.2 µM (inactive) in the assay with SF-295; > 100 µM (inactive) in the assay with SK-MEL-28. Besides, the GI50 was 15.8 µM (inactive) in the assay with SK-MEL-5; 49.1 µM (inactive) in the assay with SNB-19; 30.5 µM (inactive) in the assay on SW-620; > 100 µM (inactive) with U-251; 49.8 µM (inactive) in the assay with UACC-257.
Regarding `C=C1C(=O)OC2C[C@@]3(C)CCCC(=C)C3CC12` (some centres undefined), the GI50 in the assay on COLO 205 is 2.93 µM (inactive); in the assay with EKVX, 17.1 µM (inactive); with HCT-116, 4.05 µM (inactive); in the assay on HCT-15, 10.9 µM; with IGROV-1 it was 19 µM (inactive); in the assay on KM12, 2.24 µM (inactive). Further, the GI50 in the assay on LOX IMVI is 1.22 µM (inactive); in the assay with NCI-H460, 4.68 µM (inactive); in the assay with OVCAR-4 it was 13.4 µM (inactive); in the assay with OVCAR-5 it was 19.5 µM (inactive); in the assay on SF-268, 12.9 µM (inactive); in the assay with SF-295, 11.4 µM (inactive). Besides, the GI50 in the assay on SK-MEL-28 was 11.7 µM (inactive); with SK-MEL-5, 7.64 µM (inactive); in the assay on SNB-19, 11.2 µM (inactive); with SW-620 it was 3.92 µM (inactive); with U-251, 10.1 µM (inactive); in the assay with UACC-257, 10.3 µM (inactive). In addition, in the assay with UACC-62, the GI50 was 5.56 µM (inactive).
On to `COc1ccc(-c2cc(O)c3c(C)ccnc3n2)cc1`, for which the GI50 was 4.26 µM (inactive) with COLO 205; 30.7 µM (inactive) with EKVX; 5.61 µM in the assay with HCT-15; 5.64 µM (inactive) in the assay on IGROV-1; 3.18 µM (inactive) in the assay with KM12; 14.3 µM (inactive) in the assay with LOX IMVI. Further, the GI50 was 12.1 µM (inactive) with MOLT-4; 24.8 µM (inactive) in the assay with OVCAR-4; 20.5 µM (inactive) with OVCAR-5; 15.1 µM (inactive) in the assay on SF-268; 15.3 µM (inactive) in the assay on SK-MEL-28; 36.8 µM (inactive) in the assay with SNB-19. Besides, the GI50 in the assay on SW-620 is 4.81 µM (inactive); in the assay with UACC-257 it was 33.7 µM (inactive); with UACC-62, 10.6 µM (inactive).
In the case of `Cc1c(C)c2ccc(OCC(O)COC(C)C)c(C)c2oc1=O` (centres undefined), the GI50 was > 10 µM (inactive) with COLO 205; 45.5 µM (inactive) in the assay on EKVX; 18.5 µM (inactive) in the assay on HCT-116; 70.6 µM (inactive) in the assay with IGROV-1; 56.1 µM (inactive) with KM12; 18.7 µM (inactive) with LOX IMVI. Also, the GI50 in the assay on MOLT-4 is > 10 µM (inactive); in the assay with NCI-H460, 16.7 µM (inactive); in the assay with OVCAR-4 it was > 10 µM (inactive); in the assay with OVCAR-5, 39.1 µM (inactive); in the assay with SF-268, > 100 µM (inactive); in the assay with SF-295, 23.5 µM (inactive). Besides, the GI50 in the assay with SK-MEL-28 was 34 µM (inactive); in the assay with SK-MEL-5, 16.4 µM (inactive); in the assay with SNB-19, 57.5 µM (inactive); in the assay on SW-620, 29.4 µM (inactive); with U-251 it was 16.2 µM (inactive); with UACC-257, 19.8 µM (inactive). Moreover, the GI50 in the assay on UACC-62 was 38.5 µM (inactive).
In the case of `CC(=O)OC1COC(N2c3ccccc3[C@@H]3CCc4c([nH]c5ccccc45)[C@@H]32)C(OC(C)=O)C1OC(C)=O.CC(=O)OC1COC(N2c3ccccc3[C@H]3CCc4c([nH]c5ccccc45)[C@H]32)C(OC(C)=O)C1OC(C)=O` (some centres undefined), the GI50 was 19.2 µM (inactive) with COLO 205; 19 µM (inactive) with EKVX; 14.3 µM (inactive) in the assay with HCT-116; 47 µM in the assay on HCT-15; 2.76 µM (inactive) with IGROV-1; 12.1 µM (inactive) in the assay on KM12. For the same molecule, the GI50 in the assay on MOLT-4 is 5.79 µM (inactive); in the assay with NCI-H460, 40.6 µM (inactive); in the assay on OVCAR-4, 71.8 µM (inactive); in the assay on OVCAR-5, > 100 µM (inactive); in the assay with SF-268, 30.9 µM (inactive); in the assay on SF-295 it was 21.6 µM (inactive). Also, the GI50 in the assay with SK-MEL-28 was > 100 µM (inactive); with SK-MEL-5, 29.3 µM (inactive); in the assay on SNB-19, > 100 µM (inactive); with SW-620, > 100 µM (inactive); in the assay on U-251, 80.7 µM (inactive); in the assay on UACC-257, 72.1 µM (inactive). For the same molecule, the GI50 in the assay on UACC-62 was 60.5 µM (inactive).
Take `CC(Sc1ccccc1)C(CO)(CO)[N+](=O)[O-]` (centres undefined): the GI50 is 18.2 µM (inactive) in the assay with EKVX; 17.8 µM (inactive) in the assay with HCT-116; 11.5 µM in the assay with HCT-15; 15.6 µM (inactive) in the assay on IGROV-1; 7.85 µM (inactive) in the assay with LOX IMVI; 3.64 µM (inactive) with MOLT-4. Besides, the GI50 in the assay on NCI-H460 was 22.8 µM (inactive); in the assay on OVCAR-4 it was 17.8 µM (inactive); in the assay with OVCAR-5, 22.3 µM (inactive); in the assay with SF-268, 22.8 µM (inactive); in the assay on SF-295, 14.7 µM (inactive); in the assay with SK-MEL-5 it was 12.7 µM (inactive). For the same molecule, the GI50 in the assay with SNB-19 was 21.4 µM (inactive); in the assay with SW-620, 14.4 µM (inactive); with U-251, 13.3 µM (inactive); in the assay with UACC-257 it was 14 µM (inactive); with UACC-62, 15.8 µM (inactive).
Take `CCOC(=O)NC(Nc1ncccn1)(C(F)(F)F)C(F)(F)F`: the GI50 in the assay on EKVX was > 100 µM (inactive); in the assay on HCT-116 it was > 100 µM (inactive); with HCT-15, greater than 100 µM; in the assay on KM12, > 100 µM (inactive); in the assay with LOX IMVI, > 100 µM (inactive); in the assay on MOLT-4 it was > 100 µM (inactive). Also, the GI50 with NCI-H460, in the assay with OVCAR-5, in the assay on SF-268, with SK-MEL-28, with SNB-19 and with U-251 was > 100 µM (inactive) in each case. The GI50 in the assay with UACC-257 and in the assay on UACC-62 was > 100 µM (inactive) each time.
For `CCC1C(C#N)=C(O)NC(O)=C1C#N`, the GI50 in the assay on COLO 205 is > 100 µM (inactive); in the assay on EKVX it was > 100 µM (inactive); in the assay with HCT-116 it was > 100 µM (inactive); in the assay on HCT-15 it was greater than 100 µM; in the assay on IGROV-1, > 100 µM (inactive); with KM12, > 100 µM (inactive). For the same molecule, the GI50 in the assay on LOX IMVI, in the assay on NCI-H460, with OVCAR-4, in the assay with OVCAR-5, with SF-268 and in the assay on SF-295 was > 100 µM (inactive) each time. Besides, the GI50 in the assay on SK-MEL-28, in the assay with SK-MEL-5, in the assay with SNB-19, with SW-620, with U-251 and with UACC-257 was > 100 µM (inactive) in each case. For the same molecule, the GI50 with UACC-62 was > 100 µM (inactive).
Consider `CCOC(=O)Cc1cc(OC)c(OC)cc1/C(Cl)=C(\C=O)c1ccc(OC)c(OC)c1`, for which the GI50 with COLO 205 was 21.8 µM (inactive); in the assay with EKVX, 22.1 µM (inactive); in the assay on HCT-116, 14.4 µM (inactive); in the assay with HCT-15, 17.5 µM; in the assay on IGROV-1, 28.6 µM (inactive); in the assay on LOX IMVI it was 17.9 µM (inactive). For the same molecule, the GI50 in the assay on MOLT-4 was 16.9 µM (inactive); in the assay with NCI-H460 it was 3.4 µM (inactive); in the assay with OVCAR-4, 18.5 µM (inactive); with SF-295 it was 15.2 µM (inactive); in the assay with SK-MEL-28 it was 24.2 µM (inactive); in the assay with SK-MEL-5, 17.1 µM (inactive). For the same molecule, the GI50 in the assay on SNB-19 was 34.4 µM (inactive); in the assay with SW-620, 22.9 µM (inactive); in the assay with U-251, 17.5 µM (inactive); in the assay with UACC-257, 18.9 µM (inactive); in the assay on UACC-62, 16.4 µM (inactive).
With `O=C(N/C(=C\c1ccccc1[N+](=O)[O-])c1nc2ccccc2[nH]1)c1ccccc1`, the GI50 with COLO 205 is > 100 µM (inactive); in the assay with HCT-15 it was 88.9 µM; with IGROV-1, > 100 µM (inactive); in the assay with KM12, > 100 µM (inactive); in the assay with MOLT-4, 35.1 µM (inactive); in the assay with OVCAR-4, > 100 µM (inactive). In addition, the GI50 in the assay with OVCAR-5 is > 100 µM (inactive); in the assay on SF-295 it was 55.8 µM (inactive); with SK-MEL-28, > 100 µM (inactive); in the assay with SK-MEL-5, 72.8 µM (inactive); with SNB-19, > 100 µM (inactive); in the assay on SW-620, 58.5 µM (inactive). Also, the figures for the GI50 in the assay with U-251 and in the assay on UACC-62 were > 100 µM (inactive) and 62.4 µM (inactive), respectively.
On to `OC(c1cc2ccccc2[nH]1)C(O)(c1cc2ccccc2[nH]1)c1cc2ccccc2[nH]1` (centres undefined), for which the GI50 was 4.44 µM (inactive) in the assay with COLO 205; 12.3 µM (inactive) in the assay on EKVX; 6.92 µM (inactive) in the assay with HCT-116; 10 µM in the assay on HCT-15; 8.81 µM (inactive) with IGROV-1; 8 µM (inactive) in the assay with KM12. Further, the GI50 in the assay with LOX IMVI is 10.8 µM (inactive); in the assay on MOLT-4 it was 8.07 µM (inactive); with NCI-H460, 14.4 µM (inactive); in the assay with OVCAR-5, 57.8 µM (inactive); in the assay with SF-268 it was 15.6 µM (inactive); in the assay with SF-295, 7.23 µM (inactive). For the same molecule, the GI50 with SK-MEL-28 was 19.1 µM (inactive); in the assay with SK-MEL-5, 11.6 µM (inactive); in the assay with SNB-19, 27.2 µM (inactive); in the assay with SW-620 it was 10.1 µM (inactive); in the assay with U-251, 25.8 µM (inactive); with UACC-257, 16.3 µM (inactive). In addition, the GI50 with UACC-62 is 5.97 µM (inactive).

(Values after ChEMBL document CHEMBL1201862, “PubChem BioAssay data set” (2004).)
